Source: US20260109715A1, “IMIDAZOPYRIDINE DERIVATIVES WITH BICYCLIC STRUCTURE” (PUBLIC UNIVERSITY CORPORATION YOKOHAMA CITY UNIVERSITY, priority 2022, published 2026)

Key:
[1] = molecular target: human SMG1 enzyme (Homo sapiens, UniProt Q96Q15); experiment: Measurement of SMG1 kinase activity (ADP-Glo Kinase Assay); type: biochemical; conditions: purified human SMG1 enzyme 5 nM, Upf1 peptide substrate, ATP 4 μM; qAC50 synonymous with IC50; read-out: Test Example 1 ADP-Glo IC50
Method in brief: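 ADP-Glo luminescence readout of ADP made by 5 nM human SMG1 acting on 8 μg/mL Upf1 peptide with 4 μM ATP for 60 min at room temperature, after a 15 min enzyme–compound preincubation (1% DMSO; pH 7.5 HEPES, MnCl2). Activity scaled between DMSO and no-enzyme wells; IC50 by four-parameter logistic regression.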

[2] = system: Snhg1 transcript in tumor tissues of mice subcutaneously implanted with EMT6 murine breast cancer cell line; experiment: Evaluation of NMD inhibitory activity in vivo (Snhg1 transcript in EMT6 tumor tissue after oral administration); conditions: 6 hours after administration, BALB/c mice
Experimental: The NMD inhibitory activity of a compound of the present invention or a pharmaceutically acceptable salt thereof in vivo can be measured, for example, by the method described below. Using mice subcutaneously implanted with EMT6 murine breast cancer cell line, tumor tissues 6 hours after oral administration of a test substance are excised, and the increase in Snhg1 transcript is quantified as an indicator of NMD inhibition in the tumor, in the same manner as in the in vitro method.
In this test, NMD inhibitory activity in tumor tissues was evaluated when a test substance was orally administered to mice subcutaneously implanted with EMT6 murine breast cancer cell line. As an indicator of NMD inhibitory activity, the increase in the transcript of Snhg1, an NMD target gene, was quantified. First, BALB/c mice were subcutaneously implanted with EMT6 cells (ATCC), and engraftment was confirmed 7 days later. Six hours after administration of the test substance, mice were euthanized, and the collected tumor tissues were cryopreserved. RNA was extracted from the tumor tissues using the illustra RNAspin Mini RNA Isolation kit (GE Healthcare Life Sciences). After synthesizing cDNA using the High-Capacity cDNA Reverse Transcription Kits (Applied Biosystems, 4368813), the cDNA was mixed with PrimeTime Gene Expression Master Mix (Integrated DNA Technologies) and various probes, and gene expression was quantified by QuantStudio 6 Flex (Thermo Fisher Scientific Inc.). For the probe for the Snhg1 gene, which is an NMD target, Mm.PT.58.44039547 (FAM) (Integrated DNA Technologies) was used, and for the probe for the Gapdh gene, which is an endogenous control, Mm99999915_g2 (VIC-PL) (Applied Biosystems) was used. The relative quantification of Snhg1 transcripts in each sample was calculated by the ΔΔCT method using Gapdh as an endogenous control, and the expression level of Snhg1 in each test substance administration group was calculated by setting the expression level of the Vehicle group (0.5% methylcellulose administration group) to 1.

[3] = system: Snhg1 transcript (NMD target gene) in EMT6 murine breast cancer cell line; experiment: Measurement of NMD inhibitory activity in cells (increase in Snhg1 transcript, real-time PCR); design: species or system mouse; conditions: Mus musculus, 6 hours treatment, concentration giving 1/2 of maximum Snhg1 fold change of positive control, read-out: Test Example 2 Cell-based Snhg1 EC50
Method in brief: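 EMT6 cells treated with serially diluted compound (2% DMSO final) for 6 h; Snhg1 transcript quantified by real-time PCR (ΔΔCT, Tbp endogenous control, untreated wells set to 1). EC50 taken as concentration giving half the maximum fold change of a known NMD inhibitor positive control.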

human SMG1 enzyme, sequence (Q96Q15 whole entry): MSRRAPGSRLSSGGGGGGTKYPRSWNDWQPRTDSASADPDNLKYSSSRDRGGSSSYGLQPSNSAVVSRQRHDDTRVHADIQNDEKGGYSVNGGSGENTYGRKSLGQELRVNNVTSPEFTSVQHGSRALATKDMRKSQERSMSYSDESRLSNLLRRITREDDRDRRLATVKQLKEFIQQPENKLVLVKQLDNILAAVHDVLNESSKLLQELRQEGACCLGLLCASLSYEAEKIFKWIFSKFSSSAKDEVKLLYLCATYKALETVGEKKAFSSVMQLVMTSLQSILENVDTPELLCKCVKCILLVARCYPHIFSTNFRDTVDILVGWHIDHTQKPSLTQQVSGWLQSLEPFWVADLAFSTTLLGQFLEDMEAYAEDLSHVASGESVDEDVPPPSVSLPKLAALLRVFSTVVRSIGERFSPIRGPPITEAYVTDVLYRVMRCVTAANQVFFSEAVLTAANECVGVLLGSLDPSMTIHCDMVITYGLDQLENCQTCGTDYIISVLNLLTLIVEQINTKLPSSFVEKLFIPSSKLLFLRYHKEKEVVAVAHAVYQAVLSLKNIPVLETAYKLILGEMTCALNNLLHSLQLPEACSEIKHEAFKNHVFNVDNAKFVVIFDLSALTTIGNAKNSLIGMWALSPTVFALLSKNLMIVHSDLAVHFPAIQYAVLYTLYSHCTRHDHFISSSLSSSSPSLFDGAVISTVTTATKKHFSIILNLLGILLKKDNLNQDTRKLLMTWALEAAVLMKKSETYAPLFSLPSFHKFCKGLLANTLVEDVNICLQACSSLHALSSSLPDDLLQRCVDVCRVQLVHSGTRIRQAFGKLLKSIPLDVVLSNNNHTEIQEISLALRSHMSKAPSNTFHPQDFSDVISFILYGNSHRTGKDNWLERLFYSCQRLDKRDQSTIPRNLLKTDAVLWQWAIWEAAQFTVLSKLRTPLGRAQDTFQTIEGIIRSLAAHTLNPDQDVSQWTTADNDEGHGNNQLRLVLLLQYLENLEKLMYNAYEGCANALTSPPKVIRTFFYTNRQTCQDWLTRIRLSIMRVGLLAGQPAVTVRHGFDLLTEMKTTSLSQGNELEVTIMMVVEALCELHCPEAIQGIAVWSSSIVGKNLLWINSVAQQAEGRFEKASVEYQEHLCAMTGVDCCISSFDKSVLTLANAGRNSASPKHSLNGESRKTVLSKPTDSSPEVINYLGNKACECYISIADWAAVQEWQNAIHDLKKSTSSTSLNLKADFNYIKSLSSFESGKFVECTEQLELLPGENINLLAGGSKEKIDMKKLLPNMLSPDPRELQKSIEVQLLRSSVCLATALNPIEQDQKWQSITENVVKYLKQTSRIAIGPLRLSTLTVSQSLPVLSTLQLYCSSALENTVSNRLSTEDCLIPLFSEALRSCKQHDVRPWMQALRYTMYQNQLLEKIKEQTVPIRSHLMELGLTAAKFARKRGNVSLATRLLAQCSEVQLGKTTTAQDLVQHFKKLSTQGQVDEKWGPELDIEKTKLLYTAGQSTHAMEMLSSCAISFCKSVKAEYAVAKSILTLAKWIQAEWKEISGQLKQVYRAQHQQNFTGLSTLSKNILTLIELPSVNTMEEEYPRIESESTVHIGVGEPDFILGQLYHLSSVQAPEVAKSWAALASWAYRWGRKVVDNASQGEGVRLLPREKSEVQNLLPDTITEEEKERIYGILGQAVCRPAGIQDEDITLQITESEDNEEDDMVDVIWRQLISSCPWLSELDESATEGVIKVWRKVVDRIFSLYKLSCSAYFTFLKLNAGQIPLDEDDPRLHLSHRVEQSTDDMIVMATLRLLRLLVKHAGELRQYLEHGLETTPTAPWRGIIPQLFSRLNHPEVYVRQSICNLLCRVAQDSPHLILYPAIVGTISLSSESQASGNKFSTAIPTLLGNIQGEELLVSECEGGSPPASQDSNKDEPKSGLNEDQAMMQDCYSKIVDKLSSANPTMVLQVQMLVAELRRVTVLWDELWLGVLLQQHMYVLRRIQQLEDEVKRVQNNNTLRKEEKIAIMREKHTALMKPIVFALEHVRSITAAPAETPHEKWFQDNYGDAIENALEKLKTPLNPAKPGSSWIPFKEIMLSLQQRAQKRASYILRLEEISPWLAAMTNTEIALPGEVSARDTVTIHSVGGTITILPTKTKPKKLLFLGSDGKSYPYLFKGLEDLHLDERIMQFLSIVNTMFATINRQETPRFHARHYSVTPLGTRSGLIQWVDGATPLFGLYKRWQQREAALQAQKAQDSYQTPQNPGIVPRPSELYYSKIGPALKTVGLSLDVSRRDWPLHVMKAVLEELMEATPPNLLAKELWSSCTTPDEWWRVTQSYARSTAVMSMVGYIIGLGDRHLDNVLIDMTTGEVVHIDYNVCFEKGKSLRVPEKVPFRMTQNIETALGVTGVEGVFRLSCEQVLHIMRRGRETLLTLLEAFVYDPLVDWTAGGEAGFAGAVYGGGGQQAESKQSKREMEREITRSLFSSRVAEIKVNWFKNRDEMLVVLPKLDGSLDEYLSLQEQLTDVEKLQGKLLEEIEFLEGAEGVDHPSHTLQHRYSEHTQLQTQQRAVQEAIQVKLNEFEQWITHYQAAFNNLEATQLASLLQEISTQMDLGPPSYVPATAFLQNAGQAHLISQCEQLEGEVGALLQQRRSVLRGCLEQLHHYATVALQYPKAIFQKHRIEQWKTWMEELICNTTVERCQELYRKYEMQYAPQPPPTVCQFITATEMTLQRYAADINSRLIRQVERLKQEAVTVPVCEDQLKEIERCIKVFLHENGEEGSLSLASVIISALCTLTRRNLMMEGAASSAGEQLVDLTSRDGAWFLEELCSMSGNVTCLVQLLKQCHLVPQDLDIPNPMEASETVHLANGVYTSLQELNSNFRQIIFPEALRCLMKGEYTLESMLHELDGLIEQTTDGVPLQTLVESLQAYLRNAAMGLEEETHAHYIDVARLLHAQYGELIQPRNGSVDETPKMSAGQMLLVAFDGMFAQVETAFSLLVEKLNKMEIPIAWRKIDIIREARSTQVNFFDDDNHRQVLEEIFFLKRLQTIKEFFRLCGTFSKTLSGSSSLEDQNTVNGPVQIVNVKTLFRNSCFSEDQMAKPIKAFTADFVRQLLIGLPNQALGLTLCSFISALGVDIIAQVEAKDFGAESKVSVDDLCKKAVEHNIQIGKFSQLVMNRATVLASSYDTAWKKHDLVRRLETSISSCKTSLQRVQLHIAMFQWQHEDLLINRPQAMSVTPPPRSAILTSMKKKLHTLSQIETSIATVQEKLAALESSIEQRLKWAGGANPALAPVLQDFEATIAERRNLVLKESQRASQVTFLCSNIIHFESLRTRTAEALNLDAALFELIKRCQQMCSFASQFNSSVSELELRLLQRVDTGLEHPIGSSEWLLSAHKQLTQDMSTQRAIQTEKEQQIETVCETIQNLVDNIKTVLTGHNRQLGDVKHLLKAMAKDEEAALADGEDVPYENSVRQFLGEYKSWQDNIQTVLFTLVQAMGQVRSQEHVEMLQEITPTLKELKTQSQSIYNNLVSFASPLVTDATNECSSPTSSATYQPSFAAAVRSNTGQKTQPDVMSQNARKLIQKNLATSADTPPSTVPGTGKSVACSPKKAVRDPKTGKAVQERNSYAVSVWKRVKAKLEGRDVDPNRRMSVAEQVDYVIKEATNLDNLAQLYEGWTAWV

Compound | IC50 [1] [nM] | EC50 [3] [nM] | Snhg1 fold change ([2]; 100 mg/kg oral) | Snhg1 fold change ([2]; 30 mg/kg oral) | Snhg1 fold change ([2]; 10 mg/kg oral)
COc1cc(C(C)C)ncc1-c1nccc2[nH]c(=O)c(-c3nc4cnc(Cl)cc4[nH]3)cc12 [Example 61, 3-(6-chloro-1H-imidazo[4,5-c]pyridin-2-yl)-5-[4-methoxy-6-(propan-2-yl)pyridin-3-yl]-1,6-naphthyridin-2(1H)-one] | 1.4 | 26 | 4.3 | – | –
CCc1nc(Cl)cc2[nH]c(-c3cc4c(-c5ccc(C)nc5OC)nccc4[nH]c3=O)nc12 [Example 68, 3-(6-chloro-4-ethyl-1H-imidazo[4,5-c]pyridin-2-yl)-5-(2-methoxy-6-methylpyridin-3-yl)-1,6-naphthyridin-2(1H)-one] | 0.62 | 10 | – | 8.3 | –
CCc1nc(Cl)cc2[nH]c(-c3cc4c(-c5cnc(OC)nc5OC)nccc4[nH]c3=O)nc12 [Example 70, 3-(6-chloro-4-ethyl-1H-imidazo[4,5-c]pyridin-2-yl)-5-(2,4-dimethoxypyrimidin-5-yl)-1,6-naphthyridin-2(1H)-one] | 0.56 | 15 | – | – | 3.6
COc1ncc(-c2nccc3[nH]c(=O)c(-c4nc5c(NCC(F)F)nc(Cl)cc5[nH]4)cc23)c(OC)n1 [Example 72, 3-(6-chloro-4-[(2,2-difluoroethyl)amino]-1H-imidazo[4,5-c]pyridin-2-yl)-5-(2,4-dimethoxypyrimidin-5-yl)-1,6-naphthyridin-2(1H)-one] | 0.81 | 4.5 | – | 4.3 | –
Cc1nn(C(F)F)c(C)c1-c1nccc2[nH]c(=O)c(-c3nc4c(C)nc(Cl)cc4[nH]3)cc12 [Example 84, 3-(6-chloro-4-methyl-1H-imidazo[4,5-c]pyridin-2-yl)-5-[1-(difluoromethyl)-3,5-dimethyl-1H-pyrazol-4-yl]-1,6-naphthyridin-2(1H)-one] | 1 | 42 | – | – | 4.6
Cc1nn(C(F)F)c(C)c1-c1nccc2[nH]c(=O)c(-c3nc4c(N5C[C@@H](O)C[C@H]5C)nc(Cl)cc4[nH]3)cc12 [Example 85, 3-{6-chloro-4-[(2R,4S)-4-hydroxy-2-methylpyrrolidin-1-yl]-1H-imidazo[4,5-c]pyridin-2-yl}-5-[1-(difluoromethyl)-3,5-dimethyl-1H-pyrazol-4-yl]-1,6-naphthyridin-2(1H)-one] | 0.39 | 0.47 | – | – | 6.9
Cc1nc(Cl)cc2[nH]c(-c3cc4c(-c5c(C6CC6)nn(C(F)F)c5C)nccc4[nH]c3=O)nc12 [Example 91, 3-(6-chloro-4-methyl-1H-imidazo[4,5-c]pyridin-2-yl)-5-[3-cyclopropyl-1-(difluoromethyl)-5-methyl-1H-pyrazol-4-yl]-1,6-naphthyridin-2(1H)-one] | 1.8 | 34 | – | – | 5.9
CCc1nc(Cl)cc2[nH]c(-c3cc4c(-c5c(C6CC6)nn(C(F)F)c5C)nccc4[nH]c3=O)nc12 [Example 92, 3-(6-chloro-4-ethyl-1H-imidazo[4,5-c]pyridin-2-yl)-5-[3-cyclopropyl-1-(difluoromethyl)-5-methyl-1H-pyrazol-4-yl]-1,6-naphthyridin-2(1H)-one] | 1.9 | 20 | – | – | 6.5
C[C@@H]1COCCN1c1nc(Cl)cc2[nH]c(-c3cc4cnccc4[nH]c3=O)nc12.Cc1ccc(S(=O)(=O)O)cc1 [Example 117, 3-{6-chloro-4-[(3R)-3-methylmorpholin-4-yl]-1H-imidazo[4,5-c]pyridin-2-yl}-1,6-naphthyridin-2(1H)-one p-toluenesulfonate] | 5.1 | 80 | – | – | 5.1

Further lines, with some results ahead:

IC50 [1] [nM] | EC50 [3] [nM] | Compound | Snhg1 fold change ([2]; 100 mg/kg oral) | Snhg1 fold change ([2]; 30 mg/kg oral) | Snhg1 fold change ([2]; 10 mg/kg oral)
1.8 | 34 | CS(=O)(=O)O.C[C@@H]1C[C@@H](F)CN1c1nc(Cl)cc2[nH]c(-c3cc4cnccc4[nH]c3=O)nc12 [Example 118, 3-{6-chloro-4-[(2R,4R)-4-fluoro-2-methylpyrrolidin-1-yl]-1H-imidazo[4,5-c]pyridin-2-yl}-1,6-naphthyridin-2(1H)-one methanesulfonate] | – | – | 9.1
1.6 | 46 | CS(=O)(=O)O.Cc1nccc2[nH]c(=O)c(-c3nc4c(N5CC[C@H]5C)nc(Cl)cc4[nH]3)cc12 [Example 123, 3-{6-chloro-4-[(2R)-2-methylazetidin-1-yl]-1H-imidazo[4,5-c]pyridin-2-yl}-5-methyl-1,6-naphthyridin-2(1H)-one methanesulfonate] | – | 4.4 | –
3.2 | 55 | CS(=O)(=O)O.Cc1nccc2[nH]c(=O)c(-c3nc4c(N5CCOC[C@H]5C)nc(Cl)cc4[nH]3)cc12 [Example 124, 3-{6-chloro-4-[(3R)-3-methylmorpholin-4-yl]-1H-imidazo[4,5-c]pyridin-2-yl}-5-methyl-1,6-naphthyridin-2(1H)-one methanesulfonate] | – | – | 4.6
0.72 | 23 | CS(=O)(=O)O.Cc1nccc2[nH]c(=O)c(-c3nc4c(C5CCOCC5)nc(Cl)cc4[nH]3)cc12 [Example 125, 3-[6-chloro-4-(tetrahydro-2H-pyran-4-yl)-1H-imidazo[4,5-c]pyridin-2-yl]-5-methyl-1,6-naphthyridin-2(1H)-one methanesulfonate] | – | – | 6.5
1.6 | 29 | CS(=O)(=O)O.O=c1[nH]c2ccncc2cc1-c1nc2c(C3CCOCC3)nc(Cl)cc2[nH]1 [Example 126, 3-[6-chloro-4-(tetrahydro-2H-pyran-4-yl)-1H-imidazo[4,5-c]pyridin-2-yl]-1,6-naphthyridin-2(1H)-one methanesulfonate] | – | 4.1 | –
0.96 | 34 | CCc1nccc2[nH]c(=O)c(-c3nc4c(C5CCOCC5)nc(Cl)cc4[nH]3)cc12.CS(=O)(=O)O [Example 127, 3-[6-chloro-4-(tetrahydro-2H-pyran-4-yl)-1H-imidazo[4,5-c]pyridin-2-yl]-5-ethyl-1,6-naphthyridin-2(1H)-one methanesulfonate] | – | – | 6.2
4.5 | 56 | CC1(c2nccc3[nH]c(=O)c(-c4nc5c(C6CCOCC6)nc(Cl)cc5[nH]4)cc23)CC1 [Example 128, 3-[6-chloro-4-(tetrahydro-2H-pyran-4-yl)-1H-imidazo[4,5,c]pyridin-2-yl]-5-(1-methylcyclopropyl)-1,6-naphthyridin-2(1H)-one methanesulfonate] | – | 6.2 | –
3.5 | 17 | CS(=O)(=O)O.Cc1ccccc1-c1nccc2[nH]c(=O)c(-c3nc4c(NCC(F)(F)F)nc(Cl)cc4[nH]3)cc12 [Example 129, 3-{6-chloro-4-[(2,2,2-trifluoroethyl)amino]-1H-imidazo[4,5-c]pyridin-2-yl}-5-(2-methylphenyl)-1,6-naphthyridin-2(1H)-one methanesulfonate] | – | – | 9.0
0.78 | 22 | COc1ccc(F)cc1-c1nccc2[nH]c(=O)c(-c3nc4c(C)nc(Cl)cc4[nH]3)cc12.CS(=O)(=O)O [Example 131, 3-(6-chloro-4-methyl-1H-imidazo[4,5-c]pyridin-2-yl)-5-(5-fluoro-2-methoxyphenyl)-1,6-naphthyridin-2(1H)-one methanesulfonate] | – | – | 7.1
3.5 | 50 | CS(=O)(=O)O.Cc1nc(Cl)cc2[nH]c(-c3cc4c(-c5ccccc5OC(F)F)nccc4[nH]c3=O)nc12 [Example 132, 3-(6-chloro-4-methyl-1H-imidazo[4,5-c]pyridin-2-yl)-5-[2-(difluoromethoxy)phenyl]-1,6-naphthyridin-2(1H)-one methanesulfonate] | – | – | 7.4
